The assay concerns the target T1, renin (Homo sapiens, UniProt P00797).
T1 sequence (P00797 67-406): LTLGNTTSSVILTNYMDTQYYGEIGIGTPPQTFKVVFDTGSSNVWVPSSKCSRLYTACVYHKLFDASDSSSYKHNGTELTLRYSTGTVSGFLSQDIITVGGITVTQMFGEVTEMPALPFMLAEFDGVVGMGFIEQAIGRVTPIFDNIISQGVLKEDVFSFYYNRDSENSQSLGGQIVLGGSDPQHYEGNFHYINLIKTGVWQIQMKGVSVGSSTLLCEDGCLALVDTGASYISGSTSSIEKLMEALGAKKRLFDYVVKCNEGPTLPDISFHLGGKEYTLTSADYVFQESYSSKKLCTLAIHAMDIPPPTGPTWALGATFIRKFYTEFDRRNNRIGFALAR
Kind of assay: in vitro renin inhibitory activity, radioimmunoassay for angiotensin I. It is filed as biochemical. The conditions noted are these: renin incubated two hours at 37° with substrate angiotensinogen; angiotensin I by radioimmunoassay; molar concentration causing 50% inhibition. The method, then:
The effectiveness of the aforementioned compounds is determined by a test for in vitro renin inhibitory activity. This activity is determined by a standard radioimmunoassay for angiotensin I. In this assay the enzyme, renin, incubated for two hours at 37° in the presence of a substrate, angiotensinogen, generates the product, angiotensin I. Test compounds are added to the incubation mixture. Relative activity is reported as the IC50, which is the molar concentration of test compound causing a 50% inhibition of the renin activity.

The term IC50 denotes the concentration at which inhibition is half-maximal. A low value points to greater potency in that assay. `CCC(C)CNC(=O)CC(O)C(CC(C)C)NC(=O)C(Cc1cnc[nH]1)NC(=O)C(Cc1ccccc1)NS(=O)(=O)N(C)C` (stereo not drawn) [Me2 NSO2 PHEHISSTANHCH2 CH(CH3)CH2 CH3, Me2 NSO2 --PHE--HIS--STA--NHCH2 CH(CH3)CH2 CH3] gave a half-maximal inhibitory concentration (IC50) of 41 nM.

For `CCC(C)CNC(=O)CC(O)C(CC(C)C)NC(=O)C(Cc1cnc[nH]1)NC(=O)C(Cc1ccc(OC)cc1)NS(=O)(=O)N(C)C` (stereo not drawn) [Me2 NSO2 TYR(OMe)HISSTANHCH2 CH(CH3)CH2 CH3], the 50% inhibitory concentration (IC50) was ~3000 nM.

`C=CC[C@H](NC(=O)[C@H](Cc1ccccc1)NS(=O)(=O)N(C)C)C(=O)N[C@@H](CC(C)C)[C@@H](O)CC(=O)NCC(C)CC` (stereo partly drawn) [MeNSO2 PHEALGSTANHCH2 CH(CH3)CH2 CH3, Me2 NSO2 --PHE--ALG--STA--NHCH2 CH(CH3)CH2 CH3] gave an IC50 of 7 nM.

“Me2 NSO2 --PHE--PGY--STA--NHCH2 CH(CH3)CH2 CH3 [Me2 NSO2 PHEPGYSTANHCH2 CH(CH3)CH2 CH3]” displayed an IC50 of 34 nM.

The molecule MeNSO2 PHEALGCYSTANHCH2 CH(CH3)CH2 CH3 registered an IC50 of 1.5 nM.

MeNSO2 PHEPGYCYSTANHCH2 CH(CH3)CH2 CH3: 1.1 nM corresponded to half-maximal inhibition (IC50).

The values above are taken from patent publication US5288851A, “Renin inhibitors, processes for preparing them, methods for using them, and compositions containing them” (Warner-Lambert Company, priority 1992, dated 1994).
